According to paper PMC4823954, “From fighting depression to conquering tumors: a novel tricyclic thiazepine compound as a tubulin polymerization inhibitor” (Cell Death & Disease, 2016):

Columns and labels:
Test in all cases: KINOMEscan
Type in all cases: binding
Settings in all cases: read-out: % Ctrl
CAMK1 = molecular target: T1, CAMK1 (Homo sapiens, UniProt Q14012)
T1 construct: purchased DiscoveRx KINOMEscan
Summary of the method: (§1)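 Competition binding panel of 442 non-mutant kinases: test compound at 5 and 10 μM competed with an active-site-directed ligand for 1 h with shaking. Bound kinase was eluted with 0.5 μM ligand and quantified by qPCR; %Ctrl = (compound − positive control)/(DMSO − positive control) × 100, lower meaning tighter binding.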

FGR = molecular target: T2, FGR (Homo sapiens, UniProt P09769)
T2 construct: purchased DiscoveRx KINOMEscan
Summary of the method: as §1

PRKCH = molecular target: T3, PRKCH (Homo sapiens, UniProt P24723)
T3 construct: purchased DiscoveRx KINOMEscan
Summary of the method: as §1

PRKD3 = molecular target: T4, PRKD3 (Homo sapiens, UniProt O94806)
T4 construct: purchased DiscoveRx KINOMEscan
Summary of the method: as §1

TAOK1 = molecular target: T5, TAOK1 (Homo sapiens, UniProt Q7L7X3)
T5 construct: purchased DiscoveRx KINOMEscan
Summary of the method: as §1

LCK = molecular target: T6, LCK (Homo sapiens, UniProt P06239)
T6 construct: purchased DiscoveRx KINOMEscan
Summary of the method: as §1

EPHB1 = molecular target: T7, EPHB1 (Homo sapiens, UniProt P54762)
T7 construct: purchased DiscoveRx KINOMEscan
Summary of the method: as §1

DYRK2 = molecular target: T8, DYRK2 (Homo sapiens, UniProt Q92630)
T8 construct: purchased DiscoveRx KINOMEscan
Summary of the method: as §1

TNIK = molecular target: T9, TNIK (Homo sapiens, UniProt Q9UKE5)
T9 construct: purchased DiscoveRx KINOMEscan
Summary of the method: as §1

EGFR(E746-A750del) = molecular target: T10, EGFR(E746-A750del) (Homo sapiens, UniProt P00533, DEL746-750)
T10 construct: purchased DiscoveRx KINOMEscan

[1] = molecular target: T11, ABL1(H396P)-nonphosphorylated (Homo sapiens, UniProt P00519, H396P)
T11 construct: purchased DiscoveRx KINOMEscan

MKK7 = molecular target: T12, MKK7 (Homo sapiens, UniProt O14733)
T12 construct: purchased DiscoveRx KINOMEscan
Summary of the method: as §1

EGFR(G719S) = molecular target: T13, EGFR(G719S) (Homo sapiens, UniProt P00533, G719S)
T13 construct: purchased DiscoveRx KINOMEscan

[2] = molecular target: T14, RSK1(Kin.Dom.2-C-terminal) (Homo sapiens, UniProt Q15418)
T14 construct: RSK1(Kin.Dom.2-C-terminal); purchased DiscoveRx KINOMEscan
Summary of the method: as §1

ERK1 = molecular target: T15, ERK1 (Homo sapiens, UniProt P27361)
T15 construct: purchased DiscoveRx KINOMEscan
Summary of the method: as §1

STK35 = molecular target: T16, STK35 (Homo sapiens, UniProt Q8TDR2)
T16 construct: purchased DiscoveRx KINOMEscan
Summary of the method: as §1

MEK1 = molecular target: T17, MEK1 (Homo sapiens, UniProt Q02750)
T17 construct: purchased DiscoveRx KINOMEscan
Summary of the method: as §1

MAPKAPK5 = molecular target: T18, MAPKAPK5 (Homo sapiens, UniProt Q8IW41)
T18 construct: purchased DiscoveRx KINOMEscan
Summary of the method: as §1

ITK = molecular target: T19, ITK (Homo sapiens, UniProt Q08881)
T19 construct: purchased DiscoveRx KINOMEscan
Summary of the method: as §1

TRPM6 = molecular target: T20, TRPM6 (Homo sapiens, UniProt Q9BX84)
T20 construct: purchased DiscoveRx KINOMEscan
Summary of the method: as §1

NEK3 = molecular target: T21, NEK3 (Homo sapiens, UniProt P51956)
T21 construct: purchased DiscoveRx KINOMEscan
Summary of the method: as §1

p38-delta = molecular target: T22, p38-delta (Homo sapiens, UniProt O15264)
T22 construct: purchased DiscoveRx KINOMEscan
Summary of the method: as §1

CSNK1A1 = molecular target: T23, CSNK1A1 (Homo sapiens, UniProt P48729)
T23 construct: purchased DiscoveRx KINOMEscan
Summary of the method: as §1

AURKB = molecular target: T24, AURKB (Homo sapiens, UniProt Q96GD4)
T24 construct: purchased DiscoveRx KINOMEscan
Summary of the method: as §1

YES = molecular target: T25, YES (Homo sapiens, UniProt P07947)
T25 construct: purchased DiscoveRx KINOMEscan
Summary of the method: as §1

AKT2 = molecular target: T26, AKT2 (Homo sapiens, UniProt P31751)
T26 construct: purchased DiscoveRx KINOMEscan
Summary of the method: as §1

SRPK1 = molecular target: T27, SRPK1 (Homo sapiens, UniProt Q96SB4)
T27 construct: purchased DiscoveRx KINOMEscan
Summary of the method: as §1

MAP4K3 = molecular target: T28, MAP4K3 (Homo sapiens, UniProt Q8IVH8)
T28 construct: purchased DiscoveRx KINOMEscan
Summary of the method: as §1

LIMK2 = molecular target: T29, LIMK2 (Homo sapiens, UniProt P53671)
T29 construct: purchased DiscoveRx KINOMEscan
Summary of the method: as §1

[3] = molecular target: T30, ABL1(T315I)-phosphorylated (Homo sapiens, UniProt P00519, T315I)
T30 construct: purchased DiscoveRx KINOMEscan

T22 sequence (O15264 whole entry): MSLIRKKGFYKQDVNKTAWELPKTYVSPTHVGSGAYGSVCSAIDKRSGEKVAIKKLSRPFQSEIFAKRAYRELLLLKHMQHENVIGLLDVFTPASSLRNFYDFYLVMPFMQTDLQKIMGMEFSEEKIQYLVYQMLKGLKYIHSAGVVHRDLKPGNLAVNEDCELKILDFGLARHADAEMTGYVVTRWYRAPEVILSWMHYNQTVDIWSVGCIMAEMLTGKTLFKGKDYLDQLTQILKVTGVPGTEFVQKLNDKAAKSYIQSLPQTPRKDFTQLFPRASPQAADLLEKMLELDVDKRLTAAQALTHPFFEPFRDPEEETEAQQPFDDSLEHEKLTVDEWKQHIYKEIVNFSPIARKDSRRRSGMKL
T21 sequence (P51956 whole entry): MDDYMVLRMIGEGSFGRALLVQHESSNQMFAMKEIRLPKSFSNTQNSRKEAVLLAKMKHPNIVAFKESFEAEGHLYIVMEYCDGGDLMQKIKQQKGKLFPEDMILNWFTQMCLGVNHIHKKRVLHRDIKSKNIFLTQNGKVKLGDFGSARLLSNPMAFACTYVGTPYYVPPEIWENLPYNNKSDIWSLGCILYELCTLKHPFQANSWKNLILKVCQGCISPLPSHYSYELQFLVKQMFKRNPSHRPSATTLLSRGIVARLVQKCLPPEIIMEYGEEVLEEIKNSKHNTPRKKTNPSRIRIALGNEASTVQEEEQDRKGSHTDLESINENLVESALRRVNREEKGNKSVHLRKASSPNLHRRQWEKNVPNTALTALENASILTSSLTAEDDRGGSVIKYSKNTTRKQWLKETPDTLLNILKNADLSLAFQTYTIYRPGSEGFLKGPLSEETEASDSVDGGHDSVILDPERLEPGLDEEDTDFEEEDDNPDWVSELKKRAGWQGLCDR
T2 sequence (P09769 whole entry): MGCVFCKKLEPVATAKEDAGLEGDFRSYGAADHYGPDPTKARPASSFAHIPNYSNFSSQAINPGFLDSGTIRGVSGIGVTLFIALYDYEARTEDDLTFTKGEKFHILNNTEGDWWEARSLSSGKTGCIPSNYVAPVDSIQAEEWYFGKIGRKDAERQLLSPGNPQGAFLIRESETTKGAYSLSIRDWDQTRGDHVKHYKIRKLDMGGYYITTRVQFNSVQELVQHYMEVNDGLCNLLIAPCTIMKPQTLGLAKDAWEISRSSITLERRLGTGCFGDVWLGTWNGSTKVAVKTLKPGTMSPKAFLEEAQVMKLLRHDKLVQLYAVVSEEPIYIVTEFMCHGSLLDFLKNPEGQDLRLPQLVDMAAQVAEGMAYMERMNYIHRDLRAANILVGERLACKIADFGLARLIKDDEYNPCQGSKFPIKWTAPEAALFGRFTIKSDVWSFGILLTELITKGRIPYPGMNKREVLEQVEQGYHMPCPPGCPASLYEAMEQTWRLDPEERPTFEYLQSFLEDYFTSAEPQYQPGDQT
T18 sequence (Q8IW41 whole entry): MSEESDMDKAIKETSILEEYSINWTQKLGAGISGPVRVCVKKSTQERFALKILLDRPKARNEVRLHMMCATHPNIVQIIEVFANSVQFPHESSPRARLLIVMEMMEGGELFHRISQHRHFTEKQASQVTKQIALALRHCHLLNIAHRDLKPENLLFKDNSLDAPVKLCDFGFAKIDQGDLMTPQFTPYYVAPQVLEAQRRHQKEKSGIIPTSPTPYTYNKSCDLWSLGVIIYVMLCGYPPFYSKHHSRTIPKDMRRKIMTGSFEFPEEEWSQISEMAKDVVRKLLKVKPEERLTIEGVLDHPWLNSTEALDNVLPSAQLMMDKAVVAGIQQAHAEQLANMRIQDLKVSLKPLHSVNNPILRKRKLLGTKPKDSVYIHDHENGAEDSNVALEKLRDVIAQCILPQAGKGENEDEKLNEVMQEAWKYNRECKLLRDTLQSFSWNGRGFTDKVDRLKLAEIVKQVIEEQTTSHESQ
T25 sequence (P07947 whole entry): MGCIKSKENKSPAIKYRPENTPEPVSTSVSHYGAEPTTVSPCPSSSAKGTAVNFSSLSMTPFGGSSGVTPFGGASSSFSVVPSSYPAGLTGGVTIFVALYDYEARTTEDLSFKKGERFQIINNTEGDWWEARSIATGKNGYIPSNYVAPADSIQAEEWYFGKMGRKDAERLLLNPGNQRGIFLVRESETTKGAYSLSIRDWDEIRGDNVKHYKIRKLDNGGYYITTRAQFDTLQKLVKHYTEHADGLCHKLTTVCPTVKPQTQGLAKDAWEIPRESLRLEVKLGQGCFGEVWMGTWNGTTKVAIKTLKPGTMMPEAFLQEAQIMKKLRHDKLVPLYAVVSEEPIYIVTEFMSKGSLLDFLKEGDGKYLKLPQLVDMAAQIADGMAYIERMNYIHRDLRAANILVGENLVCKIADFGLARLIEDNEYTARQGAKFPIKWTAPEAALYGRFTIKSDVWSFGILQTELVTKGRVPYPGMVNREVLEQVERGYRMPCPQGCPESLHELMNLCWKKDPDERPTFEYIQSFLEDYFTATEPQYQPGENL
T29 sequence (P53671 whole entry): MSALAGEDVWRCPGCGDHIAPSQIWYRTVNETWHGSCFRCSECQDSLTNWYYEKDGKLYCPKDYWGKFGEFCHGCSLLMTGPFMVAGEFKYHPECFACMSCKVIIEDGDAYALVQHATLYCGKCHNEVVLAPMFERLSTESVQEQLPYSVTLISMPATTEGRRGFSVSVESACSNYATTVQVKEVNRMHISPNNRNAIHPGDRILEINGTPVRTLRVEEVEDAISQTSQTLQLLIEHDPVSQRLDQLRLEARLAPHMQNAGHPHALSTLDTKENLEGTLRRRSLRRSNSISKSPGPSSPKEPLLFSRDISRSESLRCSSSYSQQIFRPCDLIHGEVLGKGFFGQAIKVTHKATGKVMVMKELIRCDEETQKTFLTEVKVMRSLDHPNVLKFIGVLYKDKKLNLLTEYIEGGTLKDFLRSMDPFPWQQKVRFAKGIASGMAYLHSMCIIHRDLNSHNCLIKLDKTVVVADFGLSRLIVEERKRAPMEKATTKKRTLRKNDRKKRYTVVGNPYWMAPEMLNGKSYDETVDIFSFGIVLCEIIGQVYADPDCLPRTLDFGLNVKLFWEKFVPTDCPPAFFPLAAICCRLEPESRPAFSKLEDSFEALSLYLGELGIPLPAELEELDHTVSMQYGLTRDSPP
T15 sequence (P27361 whole entry): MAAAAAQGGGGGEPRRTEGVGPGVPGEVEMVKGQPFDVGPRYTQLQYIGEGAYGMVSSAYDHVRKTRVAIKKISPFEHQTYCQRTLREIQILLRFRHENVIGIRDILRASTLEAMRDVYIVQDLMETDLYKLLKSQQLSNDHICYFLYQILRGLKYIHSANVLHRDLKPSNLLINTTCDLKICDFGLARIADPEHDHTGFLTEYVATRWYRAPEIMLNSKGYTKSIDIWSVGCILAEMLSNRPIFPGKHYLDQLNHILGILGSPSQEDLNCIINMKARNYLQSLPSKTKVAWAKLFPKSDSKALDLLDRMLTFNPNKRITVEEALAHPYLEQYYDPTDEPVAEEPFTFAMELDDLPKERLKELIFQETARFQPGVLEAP
T4 sequence (O94806 whole entry): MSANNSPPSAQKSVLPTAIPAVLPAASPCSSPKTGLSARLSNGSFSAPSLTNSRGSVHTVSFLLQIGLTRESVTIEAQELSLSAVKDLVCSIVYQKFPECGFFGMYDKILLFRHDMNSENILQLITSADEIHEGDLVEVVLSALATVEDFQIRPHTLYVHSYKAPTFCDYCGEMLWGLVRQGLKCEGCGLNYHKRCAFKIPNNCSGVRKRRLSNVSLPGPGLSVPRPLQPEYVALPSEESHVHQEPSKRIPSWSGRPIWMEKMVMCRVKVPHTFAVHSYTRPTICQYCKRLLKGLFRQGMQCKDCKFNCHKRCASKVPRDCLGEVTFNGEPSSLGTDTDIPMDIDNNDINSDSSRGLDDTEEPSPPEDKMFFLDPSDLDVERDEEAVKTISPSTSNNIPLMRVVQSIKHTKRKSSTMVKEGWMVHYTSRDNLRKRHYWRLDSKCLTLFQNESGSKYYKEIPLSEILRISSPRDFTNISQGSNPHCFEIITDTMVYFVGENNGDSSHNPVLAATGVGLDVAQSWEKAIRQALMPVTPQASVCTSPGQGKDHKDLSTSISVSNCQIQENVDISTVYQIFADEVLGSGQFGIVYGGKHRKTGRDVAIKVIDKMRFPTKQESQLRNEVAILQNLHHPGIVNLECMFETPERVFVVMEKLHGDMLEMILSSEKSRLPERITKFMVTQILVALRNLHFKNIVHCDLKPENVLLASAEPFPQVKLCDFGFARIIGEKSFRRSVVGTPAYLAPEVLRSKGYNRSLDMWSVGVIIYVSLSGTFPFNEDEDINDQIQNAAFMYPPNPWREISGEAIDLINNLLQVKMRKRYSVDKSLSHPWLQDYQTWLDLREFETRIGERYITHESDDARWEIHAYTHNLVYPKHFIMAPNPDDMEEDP
T1 sequence (Q14012 whole entry): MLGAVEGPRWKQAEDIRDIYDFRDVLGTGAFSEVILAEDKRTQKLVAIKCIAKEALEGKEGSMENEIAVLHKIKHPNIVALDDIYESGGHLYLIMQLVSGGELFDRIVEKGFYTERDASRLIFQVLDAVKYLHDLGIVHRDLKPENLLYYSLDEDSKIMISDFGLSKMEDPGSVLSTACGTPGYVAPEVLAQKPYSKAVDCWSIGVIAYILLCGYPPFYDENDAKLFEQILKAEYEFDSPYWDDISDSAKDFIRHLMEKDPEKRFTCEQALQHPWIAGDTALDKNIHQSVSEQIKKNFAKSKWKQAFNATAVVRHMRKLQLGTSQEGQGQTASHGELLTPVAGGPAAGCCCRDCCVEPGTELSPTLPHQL

**Q.** What does the source list for `Cc1ccc(C2=Nc3cccnc3S(=O)(=O)c3ccccc32)cc1` [TBPT, 6-(p-tolyl)benzo[f] pyrido[2,3-b][1,4] thiazepine 11,11-dioxide]?
**A.** remaining binding at 5 µM (CAMK1; 5 μM): 96%; remaining binding at 10 µM (CAMK1; 10 μM): 98%; remaining binding at 5 µM (FGR; 5 μM): 97%; remaining binding at 10 µM (FGR; 10 μM): 73%; remaining binding at 5 µM (PRKCH; 5 μM): 82%; remaining binding at 10 µM (PRKCH; 10 μM): 100%; remaining binding at 5 µM (PRKD3; 5 μM): 100%; remaining binding at 10 µM (PRKD3; 10 μM): 78%; remaining binding at 5 µM (TAOK1; 5 μM): 100%; remaining binding at 10 µM (TAOK1; 10 μM): 100%; remaining binding at 5 µM (LCK; 5 μM): 97%; remaining binding at 10 µM (LCK; 10 μM): 100%; remaining binding at 5 µM (EPHB1; 5 μM): 100%; remaining binding at 10 µM (EPHB1; 10 μM): 100%; remaining binding at 5 µM (DYRK2; 5 μM): 93%; remaining binding at 10 µM (DYRK2; 10 μM): 100%; remaining binding at 5 µM (TNIK; 5 μM): 84%; remaining binding at 10 µM (TNIK; 10 μM): 97%; remaining binding at 5 µM (EGFR(E746-A750del); 5 μM): 81%; remaining binding at 10 µM (EGFR(E746-A750del); 10 μM): 100%; remaining binding at 5 µM ([1]; 5 μM): 62%; remaining binding at 10 µM ([1]; 10 μM): 77%; remaining binding at 5 µM (MKK7; 5 μM): 100%; remaining binding at 10 µM (MKK7; 10 μM): 100%; remaining binding at 5 µM (EGFR(G719S); 5 μM): 83%; remaining binding at 10 µM (EGFR(G719S); 10 μM): 94%; remaining binding at 5 µM ([2]; 5 μM): 100%; remaining binding at 10 µM ([2]; 10 μM): 98%; remaining binding at 5 µM (ERK1; 5 μM): 100%; remaining binding at 10 µM (ERK1; 10 μM): 100%; remaining binding at 5 µM (STK35; 5 μM): 97%; remaining binding at 10 µM (STK35; 10 μM): 100%; remaining binding at 5 µM (MEK1; 5 μM): 100%; remaining binding at 10 µM (MEK1; 10 μM): 92%; remaining binding at 5 µM (MAPKAPK5; 5 μM): 100%; remaining binding at 10 µM (MAPKAPK5; 10 μM): 88%; remaining binding at 5 µM (ITK; 5 μM): 100%; remaining binding at 10 µM (ITK; 10 μM): 90%; remaining binding at 5 µM (TRPM6; 5 μM): 100%; remaining binding at 10 µM (TRPM6; 10 μM): 85%; remaining binding at 5 µM (NEK3; 5 μM): 100%; remaining binding at 10 µM (NEK3; 10 μM): 100%; remaining binding at 5 µM (p38-delta; 5 μM): 75%; remaining binding at 10 µM (p38-delta; 10 μM): 65%; remaining binding at 5 µM (CSNK1A1; 5 μM): 100%; remaining binding at 10 µM (CSNK1A1; 10 μM): 86%; remaining binding at 5 µM (AURKB; 5 μM): 98%; remaining binding at 10 µM (AURKB; 10 μM): 92%; remaining binding at 5 µM (YES; 5 μM): 100%; remaining binding at 10 µM (YES; 10 μM): 100%; remaining binding at 5 µM (AKT2; 5 μM): 76%; remaining binding at 10 µM (AKT2; 10 μM): 100%; remaining binding at 5 µM (SRPK1; 5 μM): 88%; remaining binding at 10 µM (SRPK1; 10 μM): 67%; remaining binding at 5 µM (MAP4K3; 5 μM): 75%; remaining binding at 10 µM (MAP4K3; 10 μM): 91%; remaining binding at 5 µM (LIMK2; 5 μM): 91%; remaining binding at 10 µM (LIMK2; 10 μM): 100%; remaining binding at 5 µM ([3]; 5 μM): 100%; remaining binding at 10 µM ([3]; 10 μM): 100%
